Data taken from patent US9408851B2, “Compounds” (Glaxo Group Limited, priority 2004, dated 2016).

Experiments:
[1] = In vitro intrinsic clearance in microsomes, rat; type: in vitro ADME; settings: Assay 3, rat female microsomes, 0.5 uM compound, 0.5 mg/mL protein, 37° C.; for microsomal CLint at 0.5 uM: pH 7.4
Protocol: (§1) Determination of In vitro Intrinsic Clearance in Microsomes
(§2) NADP regeneration buffer for use in incubations was prepared fresh on the assay day. It contained 7.8 mg glucose-6-phosphate (mono-sodium salt), 1.7 mg NADP and 6 Units glucose-6-phosphate dehydrogenase per 1 mL of 2% sodium bicarbonate. Microsomes (human, female; cynomolgus monkey, female; dog, female; rat, female) were prepared in pH7.4 phosphate buffer and contained 0.625 mg protein/mL. Unless stated, all subsequent steps were performed by a Tecan Genesis 150/8 RSP. A 1.25 mM stock solution of the compounds was prepared in Acetonitrile/water (1:1). 25 ul of the 1.25 mM stock solution was added to 600 ul of Acetonitrile/water (1:1) to give a 50 uM solution. For each species, the 50 uM solutions (10 uL) were added to microsomes (790 uL) in a microplate (Porvair, 96 deepwell, square). 400 uL of the microsomal solution containing the compound was transferred to a microplate (Porvair, 96 deepwell, round) and was pre-warmed at 37° C. for five minutes prior to initiation of incubations. All incubations were initiated by addition of 100 uL of
(§3) NADP regeneration system to the pre-warmed microsomes. The mixtures were incubated at 37° C. in a Techne heating block. Following 0, 3, 6, 12 and 30 minutes incubation, 20 uL aliquots were taken and added to 100 uL of acetonitrile containing internal standard.
(§4) For determination of the rate of metabolism, incubations were performed at a compound concentration of 0.5 uM and a protein concentration of 0.5 mg/mL. The concentration of solvent in the incubation was 0.5%.
(§5) Test compound concentrations were determined by LC/MS/MS; results were reported as analyte:internal standard peak area ratios.
(§6) The rate of disappearance was calculated by fitting a single exponential decay to the concentration-time curve using Excel and intrinsic clearance was calculated using the following formula: […]

[2] = In vitro intrinsic clearance in microsomes, cynomolgus monkey; type: in vitro ADME; settings: Assay 3, cynomolgus monkey female microsomes, 0.5 uM compound, 0.5 mg/mL protein, 37° C.; for microsomal CLint at 0.5 uM: pH 7.4
Protocol: as §1, §2, §3, §4, §5, §6

[3] = In vitro intrinsic clearance in microsomes, human; type: in vitro ADME; settings: Assay 3, human female microsomes, 0.5 uM compound, 0.5 mg/mL protein, 37° C.; for microsomal CLint at 0.5 uM: pH 7.4
Protocol: as §1, §2, §3, §4, §5, §6

[4] = In vitro intrinsic clearance in microsomes, dog; type: in vitro ADME; settings: Assay 3, dog female microsomes, 0.5 uM compound, 0.5 mg/mL protein, 37° C.; for microsomal CLint at 0.5 uM: pH 7.4
Protocol: as §1, §2, §3, §4, §5, §6

[5] = molecular target: T1, human recombinant oxytocin receptors (Homo sapiens, UniProt P30559); assay: Oxytocin binding assay ([3H]-oxytocin, CHO cell membranes); settings: Assay 2, Ki from IC50 by Cheng and Prusoff
T1 construct: expressed in transfected cells; host or cells: membranes of CHO cells
T1 sequence (P30559 1-389): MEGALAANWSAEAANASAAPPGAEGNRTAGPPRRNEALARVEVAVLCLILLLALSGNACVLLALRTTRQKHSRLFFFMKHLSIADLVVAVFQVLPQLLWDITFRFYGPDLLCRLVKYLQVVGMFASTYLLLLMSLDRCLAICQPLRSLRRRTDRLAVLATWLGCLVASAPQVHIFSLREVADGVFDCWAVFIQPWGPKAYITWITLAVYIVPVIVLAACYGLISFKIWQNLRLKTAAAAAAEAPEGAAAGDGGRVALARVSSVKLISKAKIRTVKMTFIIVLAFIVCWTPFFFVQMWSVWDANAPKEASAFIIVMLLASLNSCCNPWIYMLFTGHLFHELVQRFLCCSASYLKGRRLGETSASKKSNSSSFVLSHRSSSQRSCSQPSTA
Protocol: Membranes were prepared from CHO cells expressing human recombinant oxytocin receptors. The membrane preparation was frozen in aliquots at −70° C. until used.
Membranes (˜50 ug) were incubated in 200 ul of assay buffer (50 mM Tris, 10 mM MgCl2, and 0.1% bovine serum albumin, pH 7.5) containing ˜2.4 nM of [3H]-oxytocin in the absence (total binding) or presence (non-specific binding) of 1 uM unlabeled oxytocin and increasing concentrations of the compounds in Examples 1 to 6 or comparator compounds. Incubations were performed at room temperature for 60 minutes. The reactions were stopped with 3 ml of ice cold buffer and filtered through Whatman GF/C filter paper presoaked in 0.3% polyethylenimine. The filters were washed 4 times with 3 ml buffer using a Brandel cell harvester. The filters were counted in 3 ml Ready Safe scintillation fluid (Beckman).
Specific binding represented approximately 90% of total binding.
IC50 values were determined from competition binding experiments using non-linear regression analysis (GraphPad) and converted to Ki using the method of Cheng and Prusoff, 1974. Data are reported as mean values.

[6] = molecular target: T2, recombinant human Oxytocin-1 (hOT) receptor (Homo sapiens, UniProt P30559); assay: Antagonist affinity at human Oxytocin-1 receptors using FLIPR ([Ca2+]i); type: cell-based; settings: Assay 1, CHO-hOT cells, oxytocin at EC80, read-out: fpKi
T2 construct: expressed in transfected cells
T2 sequence (P30559 1-389): T1 sequence (P30559 1-389)
Protocol: Determination of Antagonist Affinity at Human Oxytocin-1 Receptors using FLIPR
Adherent Chinese Hamster Ovary (CHO) cells, stably expressing the recombinant human Oxytocin-1 (hOT) receptor, were maintained in culture in DMEM:F12 medium (Sigma, cat no D6421), supplemented with 10% heat inactivated foetal calf serum
(Gibco/Invitrogen, cat. no. 01000-147), 2 mM L-glutamine (Gibco/Invitrogen, cat. no. 25030-024) and 0.2 mg/ml G418 (Gibco/Invitrogen, cat no. 10131-027). Cells were grown as monolayers under 95%:5% air:CO2 at 37° C. and passaged every 3-4 days using TrypLE™ Express (Gibco/Invitrogen, cat no. 12604-013).
Measurement of [Ca^2+]i using the FLIPR™
CHO-hOT cells were seeded into black walled clear-base 384-well plates (Nunc) at a density of 10,000 cells per well in culture medium as described above and maintained overnight (95%:5% air:CO2 at 37° C.). […] Cells were then incubated for an additional 30 min at 37° C. with either buffer alone or buffer containing OT antagonist, before being placed into a FLIPR™ (Molecular Devices, UK) to monitor cell fluorescence (λex=488 nm, λEM=540 nm) before and after the addition of a submaximal concentration of oxytocin (EC80).
Functional responses using FLIPR were analysed using Activity Base Version 5.0.10.

Microsomal Cl, Rat [1]	Microsomal Cl, Cynomolgus monkey [2]	Microsomal Cl, Human [3]	Microsomal Cl, Dog [4]	microsomal CLint at 0.5 uM [1]	microsomal CLint at 0.5 uM [2]	microsomal CLint at 0.5 uM [3]	microsomal CLint at 0.5 uM [4]	Ki [5]	Ki [6]	SMILES
+, +	+++++, +++++	++, +	+, +							CC[C@H](C)[C@@H]1C(=O)N[C@H](C2Cc3ccccc3C2)C(=O)N1[C@@H](C(=O)N(C)C)c1cnc(C)cc1C [Example 4, (2R)-2-{(3R,6R)-3-(2,3-Dihydro-1H-inden-2-yl)-6-[(1S)-1-methylpropyl]-2,5-dioxo-1-piperazinyl}-2-(4,6-dimethyl-3-pyridinyl)-N,N-dimethylethanamide]
				1 to 8 mL/min/g	1 to 8 mL/min/g	1 to 8 mL/min/g	1 to 8 mL/min/g			CC[C@H](C)[C@@H]1C(=O)N[C@H](C2Cc3ccccc3C2)C(=O)N1[C@@H](C(=O)NC)c1ccc(C)nc1C [Example 1, (2R)-2-{(3R,6R)-3-(2,3-Dihydro-1H-inden-2-yl)-6-[(1S)-1-methylpropyl]-2,5-dioxo-1-piperazinyl}-2-(2,6-dimethyl-3-pyridinyl)-N-methylethanamide]
	++, +++	+, +		1 to 8 mL/min/g			1 to 8 mL/min/g			CC[C@H](C)[C@@H]1C(=O)N[C@H](C2Cc3ccccc3C2)C(=O)N1[C@@H](C(=O)N(C)C)c1ccc(C)nc1C [Example 2, (2R)-2-{(3R,6R)-3-(2,3-Dihydro-1H-inden-2-yl)-6-[(1S)-1-methylpropyl]-2,5-dioxo-1-piperazinyl}-2-(2,6-dimethyl-3-pyridinyl)-N,N-dimethylethanamide]
				1 to 8 mL/min/g	16 to 20 mL/min/g	1 to 8 mL/min/g	1 to 8 mL/min/g			CC[C@H](C)[C@@H]1C(=O)N[C@H](C2Cc3ccccc3C2)C(=O)N1[C@@H](C(=O)N1CCOCC1)c1cnc(C)cc1C [Example 6, (3R,6R)-3-(2,3-dihydro-1H-inden-2-yl)-1-[(1R)-1-(4,6-dimethyl-3-pyridinyl)-2-(4-morpholinyl)-2-oxoethyl]-6-[(1S)-1-methylpropyl]-2,5-piperazinedione]
				1 to 8 mL/min/g	16 to 20 mL/min/g	1 to 8 mL/min/g	1 to 8 mL/min/g			CC[C@H](C)[C@@H]1C(=O)N[C@H](C2Cc3ccccc3C2)C(=O)N1[C@@H](C(=O)NC)c1cnc(C)cc1C [Example 5, (2R)-2-{(3R,6R)-3-(2,3-Dihydro-1H-inden-2-yl)-6-[(1S)-1-methylpropyl]-2,5-dioxo-1-piperazinyl}-2-(4,6-dimethyl-3-pyridinyl)-N-methylethanamide]
				1 to 8 mL/min/g		9 to 15 mL/min/g	1 to 8 mL/min/g	0.0316 to 1.58 nM	0.631 to 7.94 nM	Cc1ccc([C@H](C(=O)N(C)C)N2C(=O)[C@@H](C3Cc4ccccc4C3)NC(=O)[C@H]2CC(C)C)cn1 [Comparator X, (2R)-2-[(3R,6R)-3-(2,3-dihydro-1H-inden-2-yl)-6-isobutyl-2,5-dioxopiperazin-1-yl]-N,N-dimethyl-2-(6-methylpyridin-3-yl)ethanamide, reference compound]
				1 to 8 mL/min/g	1 to 8 mL/min/g	1 to 8 mL/min/g	1 to 8 mL/min/g			CC[C@H](C)[C@@H]1C(=O)N[C@H](C2Cc3ccccc3C2)C(=O)N1[C@@H](C(=O)N1CCOCC1)c1ccc(C)nc1C [Example 3, (3R,6R)-3-(2,3-dihydro-1H-inden-2-yl)-1-[(1R)-1-(2,6-dimethyl-3-pyridinyl)-2-(4-morpholinyl)-2-oxoethyl]-6-[(1S)-1-methylpropyl]-2,5-piperazinedione]
